Source: US20210253562A1, “ACYLSUFONAMIDE COMPOUNDS USEFUL AS EP3 RECEPTOR ANTAGONISTS” (Janssen Pharmaceutica NV, priority 2018, published 2021)
Like-named read-outs stand apart in the source and are kept apart here.

What was measured:
[1] = target: T1, EP3 membrane (EP3 receptor) (Homo sapiens, UniProt P43115); experiment: [3H]-PGE2 binding; EP3 competition binding (SPA)
T1 construct: purchased Millipore HTS092M
T1 sequence (P43115 1-390): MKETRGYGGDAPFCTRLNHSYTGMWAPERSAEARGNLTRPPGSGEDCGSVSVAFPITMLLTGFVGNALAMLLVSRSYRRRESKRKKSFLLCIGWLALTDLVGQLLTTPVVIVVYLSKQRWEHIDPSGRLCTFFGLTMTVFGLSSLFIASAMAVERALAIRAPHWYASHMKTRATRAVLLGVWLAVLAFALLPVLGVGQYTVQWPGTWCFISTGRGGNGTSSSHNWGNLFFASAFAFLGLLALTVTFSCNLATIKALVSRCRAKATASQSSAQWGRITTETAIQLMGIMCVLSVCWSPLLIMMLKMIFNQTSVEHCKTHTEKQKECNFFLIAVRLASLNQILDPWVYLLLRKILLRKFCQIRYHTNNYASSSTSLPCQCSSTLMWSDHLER
Outline: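 SPA competition at room temperature, 2 h: EP3 membranes 2 μg/well, 2 nM [3H]-PGE2, 0.1% DMSO, in Tris/MgCl2/EDTA buffer pH 7.4. Compounds in 1:3 serial dilution; scintillation read; Ki by one-site nonlinear fit.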

[2] = target: T2, CHO cells over-expressing the EP3 receptor (Homo sapiens, UniProt P43115); experiment: CHO cell cAMP assay; EP3 cAMP antagonist dose response (sulprostone reference), HTRF; format: cell-based; conditions: sulprostone 700 nM (EC80) and FSK 2 μM (EC70); read-out: CHO_cAMP IC50
T2 construct: expressed in transfected cells; host or cells: CHO cells
T2 sequence (P43115 1-390): T1 sequence (P43115 1-390)
Outline: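 EP3-overexpressing CHO cells pre-incubated with test compound, then stimulated 30 min at 37 °C with FSK (2 μM, EC70) plus sulprostone (700 nM, EC80); antagonism seen as restored cAMP. cAMP measured by HTRF 665/615 ratio, converted via on-plate standard curve. IC50 from Hill fit of 11-point dosing.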

## O=C(C/C=C1\CCCc2cnn(Cc3ccc(Cl)cc3Cl)c21)NS(=O)(=O)c1cc(F)cc(F)c1 [Compound #19, (E)-3-(1-(2,4-dichlorobenzyl)-1,4,5,6-tetrahydro-7H-indazol-7-ylidene)-N-((3,5-difluorophenyl)sulfonyl)propenamide]
[1]
  Ki: 14 nM
[2]
  IC50: 83 nM

## COc1ccc(S(=O)(=O)NC(=O)NC/C(F)=C2\CCCc3cnn(Cc4ccc(Cl)cc4Cl)c32)cc1Cl [Compound #143, (Z)-3-chloro-N-((2-(1-(2,4-dichlorobenzyl)-1,4,5,6-tetrahydro-7H-indazol-7-ylidene)-2-fluoroethyl)carbamoyl)-4-methoxybenzenesulfonamide]
[1]
  Ki: 3 nM
[2]
  IC50: 18 nM

## CN(C/C=C1\COCc2cnn(Cc3ccc(Cl)cc3Cl)c21)C(=O)NS(=O)(=O)c1cc(Cl)c(Cl)s1 [Compound #55, (Z)-4,5-dichloro-N-((2-(1-(2,4-dichlorobenzyl)-1,4-dihydropyrano[4,3-c]pyrazol-7(6H)-ylidene)ethyl)(methyl)carbamoyl)thiophene-2-sulfonamide]
[1]
  Ki: 3 nM
[2]
  IC50: 11 nM

## O=C(NC/C(F)=C1\CCCc2onc(Cc3ccc(Cl)cc3Cl)c21)NS(=O)(=O)c1cc(Cl)c(Cl)s1 [Compound #127, (Z)-4,5-dichloro-N-((2-(3-(2,4-dichlorobenzyl)-6,7-dihydrobenzo[d]isoxazol-4(5H)-ylidene)-2-fluoroethyl)carbamoyl)thiophene-2-sulfonamide]
[1]
  Ki: 1 nM
[2]
  IC50: 8 nM

## COc1ccc(F)cc1S(=O)(=O)NC(=O)NC/C(F)=C1/CCCc2cnn(-c3ccc4ccccc4c3)c21 [Compound #112, (E)-5-fluoro-N-((2-fluoro-2-(1-(naphthalen-2-yl)-1,4,5,6-tetrahydro-7H-indazol-7-ylidene)ethyl)carbamoyl)-2-methoxybenzenesulfonamide]
[1]
  Ki: > 10000 nM
[2]
  IC50: > 20000 nM

## O=C(NC/C=C1\CCCc2cnn(Cc3ccc4ccccc4c3)c21)NS(=O)(=O)c1cc(Cl)c(Cl)s1 [Compound #88, (E)-4,5-dichloro-N-((2-(1-(naphthalen-2-ylmethyl)-1,4,5,6-tetrahydro-7H-indazol-7-ylidene)ethyl)carbamoyl)thiophene-2-sulfonamide]
[1]
  Ki: 104 nM
[2]
  IC50: 554 nM

## COc1ccccc1S(=O)(=O)NC(=O)NC/C=C1\COCc2cnn(Cc3ccc(Cl)cc3Cl)c21 [Compound #58, (Z)—N-((2-(1-(2,4-dichlorobenzyl)-1,4-dihydropyrano[4,3-c]pyrazol-7(6H)-ylidene)ethyl)carbamoyl)-2-methoxybenzenesulfonamide]
[1]
  Ki: 110 nM
[2]
  IC50: 1300 nM

## O=C(CC/C=C1\CCCc2cnn(Cc3ccc(Cl)cc3Cl)c21)NS(=O)(=O)c1ccc(Cl)cc1 [Compound #24, (E)-N-((4-chlorophenyl)sulfonyl)-4-(1-(2,4-dichlorobenzyl)-1,4,5,6-tetrahydro-7H-indazol-7-ylidene)butanamide]
[1]
  Ki: 3 nM
[2]
  IC50: 6 nM

## O=C(NC/C(F)=C1\COCc2cnn(Cc3ccc(Cl)cc3Cl)c21)NS(=O)(=O)c1cc(Cl)c(Cl)s1 [Compound #54, (E)-4,5-dichloro-N-((2-(1-(2,4-dichlorobenzyl)-1,4-dihydropyrano[4,3-c]pyrazol-7(6H)-ylidene)-2-fluoroethyl)carbamoyl)thiophene-2-sulfonamide]
[1]
  Ki: 3 nM
[2]
  IC50: 24 nM

## O=C(NC/C=C1\CCCc2cnn(-c3ccc(C(F)(F)F)cc3)c21)NS(=O)(=O)c1cc(Cl)c(Cl)s1 [Compound #85, (E)-4,5-dichloro-N-((2-(1-(4-(trifluoromethyl)phenyl)-1,4,5,6-tetrahydro-7H-indazol-7-ylidene)ethyl)carbamoyl)thiophene-2-sulfonamide]
[1]; unit nM
  Ki: 0.4 nM
[2]
  IC50: 4 nM

## Cc1nn(Cc2ccc(Cl)cc2Cl)c2c1CCC/C2=C(/F)CNC(=O)NS(=O)(=O)c1cc(Cl)c(Cl)s1 [Compound #109, (Z)-4,5-dichloro-N-((2-(1-(2,4-dichlorobenzyl)-3-methyl-1,4,5,6-tetrahydro-7H-indazol-7-ylidene)-2-fluoroethyl)carbamoyl)thiophene-2-sulfonamide]
[1]
  Ki: 7 nM
[2]
  IC50: 60 nM
